In patent publication US20150284812A1 (priority 2012, published 2015):
Where two headings read alike, the source gives them in different places.

What was measured:
CYP3A7-DsRed [1] = assay: Liver injury test using CYP3A4+/7R MAC-introduced mice, observation under fluorescence microscope; assay type: in vivo, mouse; conditions: 8 weeks old mice; 5% carbon tetrachloride dissolved in DMSO; observed for 3 days
Text: The CYP3A4+/7MAC-introduced mice produced in Example 5 strongly expressed DsRed for several weeks after the birth. […] In the CYP3A4+/7R MAC-introduced mice, EGFP functions as a marker showing introduction of MAC in the cells.

CYP3A7-DsRed [2] = assay: Liver injury test using CYP3A4+/7R MAC-introduced mice, analysis by quantitative RT-PCR; assay type: in vivo, mouse; conditions: adult mice; 5% carbon tetrachloride; Days 1, 2 and 3 versus non-administered (Day 0)
Protocol: Using RNAs extracted from the livers of the CYP3A4+/7R MAC-introduced mice to which 5% carbon tetrachloride had been administered in Test Example 11 and non-administered (Day 0) mice, an increase in the expression of DsRed on Days 1, 2 and 3 after the administration was analyzed by quantitative RT-PCR (FIG. 19).

[3] = tested on: gene expression control region of the human CYP3A4 gene (EGFP reporter)
Protocol: (§1) Forty-eight hours later (corresponding to Day 14 of differentiation culture), the total area fluorescence intensities of EGFP and DsRed were analyzed under a fluorescence microscope (FIG. 16).

[4] = tested on: gene expression control region of the human CYP3A7 gene (DsRed reporter)
Protocol: as §1

CYP3A7 = assay: Expression of CYP3A7 upon cell damage, liver damage by a CYP-inducing drug in humanized CYP3A model mouse; assay type: in vivo; conditions: versus corn oil administration control group, hepatocyte regeneration after liver damage
Text: The expression of CYP3A7 during the injury of hepatocytes was examined by a method of liver regeneration after partial hepatectomy performed on 70% living liver, using a humanized CYP3A model mouse into which human CYP3A4 and CYP3A7 have been incorporated, a method of damaging the liver of the same mouse as described above by administration of a CYP-inducing drug, and a method of transplanting frozen human hepatocytes into the liver injury model mouse. In the method of liver regeneration after the partial hepatectomy, mice that were fed after 70% of the liver had been excised by ligating it with a cord were produced. Thereafter, the mice were successively subjected to dissection from Days 1 to 5 to collect the liver from each mouse, and gene expression was then examined. In the method of damaging the liver by administration of a CYP-inducing drug, the liver was excised from each mouse belonging to a PCN administration group and a corn oil administration control group, and gene expression was then examined. In the method of transplanting frozen human hepatocytes into the living mouse, a part of the humanized mouse liver was obtained from PhenixBio, and gene expression was then examined.

SMILES | fluorescence intensity of DsRed in the liver (CYP3A7-DsRed [1]) | expression of DsRed in the liver (quantitative RT-PCR) (CYP3A7-DsRed [2]) | cellular damage to HepaRG cells (HepaRG cells) | expression of EGFP (total area fluorescence intensity) [3] | fluorescence intensity of DsRed [4] | expression of CYP3A7 in liver (CYP3A7) | cellular damage to HepaRG cells (HepaRG cells; HepaRG cells) | fluorescence intensity of DsRed ([4]; HepaRG clone C3, drug in 1% DMSO, 48 hours, DMSO control group = 1)
ClC(Cl)(Cl)Cl [carbon tetrachloride] | increase | increases |  |  |  |  |  | 
Clc1ccccc1C(c1ccccc1)(c1ccccc1)n1ccnc1 [clotrimazole] |  |  | high cellular damage | induced | increase |  |  | 
CC(=O)[C@H]1[C@H](C#N)C[C@H]2[C@@H]3CC=C4C[C@@H](O)CC[C@]4(C)[C@H]3CC[C@@]21C [PCN, pregnenolone 16α-carbonitrile] |  |  |  | non-inducibility |  | transiently increased | high cellular damage | increase
